Results: patent US20250313528A1, “NOVEL COMPOUND AND PHARMACEUTICAL COMPOSITION FOR PREVENTING OR TREATING PULMONARY FIBROSIS COMPRISING SAME AS ACTIVE INGREDIENT” (GIL MEDICAL CENTER, priority 2022, published 2025)

Tests used:
Assay type in all cases: cell-based, human
FN, COL1A1, and α-SMA [1] = assay: qRT-PCR of fibrosis-related genes in TGF-β1-induced DHLF-IPF cells; details: 10 μM pretreatment 1 hour, TGF-β1 1 ng/ml 48 hours, FIG. 4c/4d
Experimental: (§1) MRC-5 and DHLF-IPF cells were each cultured in growth medium, and the medium was removed. […] The medium was then removed, and the cells were washed once with PBS. Intracellular total RNA was extracted from the cultured cells using TRIzol reagent (TaKaRa Bio Inc., Japan) for gene expression analysis. 1 mL of TRIzol reagent was added to lyse the cells and denature the tissue. The lysate was transferred to each 1.5 mL tube, and 200 μL of chloroform was added thereto, followed by vortexing for 20 seconds to ensure complete mixing. After incubating at room temperature for 15 minutes, the mixture was centrifuged at 14,000 rpm for 20 minutes to obtain the supernatant. After adding an equal volume of isopropyl alcohol, the tubes were inverted and incubated at room temperature for 10 minutes. The sample was centrifuged at 14,000 rpm for 15 minutes to obtain an RNA pellet, which was washed by centrifugation with 70% ethanol for use on RNA at 14,000 rpm for 5 minutes, and dried for 5 minutes. The dried RNA sample was added with 20 μL of distilled water treated with 0.1% diethyl pyrocarbonate (DEPC) to dissolve the pallet and the resultant was used as a sample for cDNA synthesis. 1 μL of the same was used to measure the RNA concentration and purity at O.D. 260/280 nm using a Nanodrop.
(§2) Single-stranded cDNA synthesis was performed by mixing 1 μg of the extracted total RNA with 1 μL of oligo-d(T) primer ([…]) and 10 mM dNTP (TaKaRa Bio Inc., Japan), reacting at 65° C. for 5 minutes, followed by rapid cooling. To this template, 4 μL of 5×RT buffer, 0.5 μL of RNA inhibitor, and 100 units of RTase (TaKaRa Bio Inc., Japan) were added, and the total volume was adjusted to 20 μL using DEPC-treated distilled water. […]
(§3) Each gene expression level was measured using real-time PCR. […] The specificity of the amplified product was confirmed through melting curve analysis, and the target genes were quantified and compared using GAPDH as a control gene.

fibronectin and α-SMA [2] = assay: Western blotting of fibrosis-related proteins in TGF-β1-induced DHLF-IPF cells; details: TGF-β1 1 ng/ml, 10 μM, FIG. 4b
Experimental: (§4) Specifically, to extract fibronectin and α-SMA proteins, the cells were washed once with cold PBS and then RIPA buffer (150 mM NaCl, 0.5% Triton X-100, 50 mM Tris-HCl, pH 7.4, 25 mM NaF, 20 mM EGTA), which was added with a protease inhibitor cocktail, was added thereto to lyse the cells. Then, the proteins were quantified using a BCA protein assay kit. All protein samples were subjected to electrophoresis at 10 μg on 8% to 10% PAGE gels and then transferred to 0.2 μm PVDF membranes (EMD Millipore, MA, USA). The membranes to which the protein was transferred were blocked with 5% BSA or 5% skim milk for 1 hour, and then primary antibodies were added thereto and incubated overnight at 4° C. The following day, the membranes were washed three times with PBST, and then HRP-conjugated secondary antibodies were added and reacted at room temperature for 1 hour. The PVDF membranes prepared through such procedures were smeared with ECL (Luminata™ Crescendo, EMD Millipore) and exposed to a fluorescence reader to confirm the level of protein expression.
(§5) To compare the changes in fibrosis-related protein expression by treating normal MRC-5 and diseased DHLF-IPF cell lines induced with pulmonary fibrosis by TGF-β1 with SFN and the two candidate compounds, Western blotting was performed.
(§6) The specific experimental methods are the same as in Example 2. TGF-β1 was treated at 1 ng/ml to induce fibrosis, and sulforaphane and the two compounds each were treated at a concentration of 10 μM.

fibronectin and α-SMA [3] = assay: Western blotting of fibrosis-related proteins in TGF-β1-induced MRC-5 cells; details: MRC-5, TGF-β1 1 ng/ml, 10 μM, FIG. 4b
Experimental: Since the overexpression of extracellular matrix components such as fibronectin and α-SMA serves as an indicator of fibrotic changes in tissues, MRC-5 cells induced to undergo fibrosis by TGF-β1 were treated with each compound at different concentrations to compare the expression levels of fibronectin and α-SMA.
as §4
The specific experimental methods are the same as in Example 2, and sulforaphane was treated at a concentration of 20 μM, Compound 1 at 5 μM, 10 μM, and 20 μM, and Compound 2 at 2.5 μM, 5 μM, and 10 μM, respectively.
as §5, §6

FN, COL1A1, and α-SMA [4] = assay: qRT-PCR of fibrosis-related genes in TGF-β1-induced MRC-5 cells; details: MRC-5, 10 μM pretreatment 1 hour, TGF-β1 1 ng/ml 48 hours, FIG. 4c/4d
Experimental: as §1, §2, §3

C[S+]([O-])CCCCN=C=S (stereo not shown) [sulforaphane, reference compound]
reduced: gene expression levels of FN, COL1A1, and α-SMA (FN, COL1A1, and α-SMA [1]) | expression levels of fibronectin and α-SMA protein (fibronectin and α-SMA [2]) | expression levels of fibronectin and α-SMA protein (fibronectin and α-SMA [3]) | gene expression levels of FN, COL1A1, and α-SMA (FN, COL1A1, and α-SMA [4])
